Here are results for 18 compounds from patent publication US20140221207A1, “ISOLATED BACTERIAL STRAIN OF THE GENUS BURKHOLDERIA AND PESTICIDAL METABOLITES THEREFROM- FORMULATIONS AND USES” (MARRONE BIO INNOVATIONS, INC., priority 2011, published 2014).

One test deals with Burkholderia A396. It is filed as cell-based, Burkholderia sp. A396. Particulars: 72-hour incubation at 25° C. As to the method:
Antibiotic susceptibility of Burkholderia A396 is tested using antibiotic disks on Muller-Hinton medium as described in PML Microbiological's technical data sheet #535.

In the next test the test system is B. cepacia complex. The conditions noted are these: 2,621 strains in B. cepacia complex; cited from earlier work.
Test [1] deals with Chlamydomonas reinhardtii. Kind of test: Control of Chlamydomonas reinhardtii by purified compounds, fluorescence at 680 nm. In kind it is cell-based. The conditions noted are these: 72 hours. How it is done: Purified compounds from Burkholderia sp. fermentation broth was tested for algaicidal activity against Chlamydomonas reinhardtii. An increasing volume of the purified compounds (20 mg/mL in ethanol) was added to a clear 48 well polystyrene plate with 750 micro liters of the specified algae growing. Each treatment was done in two replicates and the solvent used as a negative control. The plate was closed with a lid and incubated for 72 hours under constant light at room temperature. After 72 hours the fluorescence (at 680 nm) of the suspension in each well was measured using a SpectraMax M2 plate reader, and the reduction in fluorescence compared with the negative control was converted into percent control of algal growth. Each sample was visually compared to the negative control; a well that was visually clearer than the negative control was scored as active. […] Tests were run in two replicates and %. Control was calculated as a reduction of fluorescence at 680 nm compared with the negative control. Each sample was visually compared to the negative control; a well that was visually clearer than the negative control was scored as active.

A further test relates to Lygus hesperus. The test is described as follows: 12 well plate treated green beans bioassay, Lygus hesperus late 2nd/early 3rd instar. It is filed as in vivo. Particulars: green beans dipped in 0.25 mg/mL, scored at 24, 48 and 120 hours. As to the method:
The insecticidal activity of the four compounds, templamide A, templamide B, FR901465 & FR901228 isolated from Burkholderia were tested in a laboratory assay using a 12 well plate with treated green beans bioassay system. The compound was dissolved in 100% ethanol to concentrations of […] and 500 μL of this sample was added to 3.5 mL of water to make a total volume of 4 mL containing 0.25 mg/mL concentration of the compound. Green beans were washed earlier in bleach solution and then sat in water to rinse. Beans were dried before using and then were cut with scissors to fit into wells of 12-well plate. With the help of forceps the beans were dunked into a 15 mL plastic falcon tube containing each treatment and then submerged in treatment for exactly one min. one bean part was put into each well and then individual late 2nd/early 3rd instar Lygus hesperus, were placed in wells with help of brush. Plate sealer was used to cover tray and hole poked into the plate sealer for aeration. The numbers of Lygus/well were counted and plates were placed on brench top. Larvae were scored at 24, 48 and 120 hours after application. […] The positive control used in this testing was Avid (Avemectin) at the rate of 13 μL/10 mL.

For test [2], the system named is Two Spotted Spidermite (TSM). Kind of test: Control of two spotted spidermite (TSM) in strawberry, field data. In kind it is in vivo. Particulars: 6 oz./acre. As to the method:
The efficacies of five traditional chemistry-derived and MBI 206 were evaluated for TSM control under field conditions. ‘Strawberry Festival’ transplants were set in the field in plastic mulched beds, 13 inches high and 27 inches across the top, and with 4 ft bed spacing. Overhead irrigation was applied for 10 days after setting to aid in establishment of the transplants. Trickle irrigation was used for the remainder of the experiment. Each 12.5-ft. plot consisted of 20 plants in two ten-plant rows per bed. Plots were infested from a laboratory colony in four sessions with 10 to 20 motile TSM, per plant. Each session accomplished the infestation of one block of the experiment. The experiment consisted of treatments of various rates and schedules of application of miticides, some combined with an adjuvant, and a non-treated check. Treatments were replicated four times in a RCB design. Savey and Acramite treatments were applied before TSM densities reached threshold levels (6 January); the remainder of the treatment programs began 2 wks later. Treatments were applied using a hand-held sprayer with a spray wand outfitted with a nozzle containing a 45-degree core and a number four disc.
The sprayer was pressurized by CO2, to 40 psi, and calibrated to deliver 100 gal per acre. Pre-treatment samples were taken on Day 1 and sampling continued weekly through 2 wks after the last application of treatments. Samples consisted of ten randomly selected leaflets per plot and were collected from the middle one-third stratum of the plants. Samples were transported to the laboratory where motile and egg TSM were brushed from the leaflets onto rotating sticky discs and counted on 1/10 of the disc surface to estimate average numbers per leaflet. Distinctions could not be made between viable and non-viable eggs, thus total eggs were recorded.

The mark [3] stands for this setting: 5 μL of sample (20 mg/mL in ethanol) per 750 μL of algae.
Setting [4] is: 5 μL of sample per 750 μL of algae.
Where [5] appears, read: 11 μL of sample (20 mg/mL in ethanol) per 750 μL of algae.
[6] abbreviates: 11 μL of sample per 750 μL of algae.
The mark [7] stands for this setting: 22.5 μL of sample (20 mg/mL in ethanol) per 750 μL of algae.
[8] abbreviates: 22.5 μL of sample per 750 μL of algae, well visually clearer than negative control scored as active.

“And” between values parts separate entries of the source, which are not always exact repeats. Equal values may be shown once. Read-outs that look alike come from different tables or passages of the source.

As for `CC1(C)S[C@@H]2[C@H](NC(=O)[C@H](N)c3ccccc3)C(=O)N2[C@H]1C(=O)O` [Ampicillin], the Susceptible result in the test on Burkholderia A396 (disk 10 μg) is “−”.
With `CO/N=C(\C(=O)N[C@@H]1C(=O)N2C(C(=O)O)=C(COC(N)=O)CS[C@H]12)c1ccco1` [Cefuroxime], the Susceptible entry with Burkholderia A396 (disk 30 μg) is “−”.
As for `O=C(N[C@H](CO)[C@H](O)c1ccc([N+](=O)[O-])cc1)C(Cl)Cl` [Chloramphenicol], the “share of strains susceptible” value with B. cepacia complex was 15%. Also, the Susceptible result with Burkholderia A396 (disk 30 μg) is recorded as “++”.
For `O=C(O)c1cn(C2CC2)c2cc(N3CCNCC3)c(F)cc2c1=O` [Ciprofloxacin], the “share of strains susceptible” value in the test on B. cepacia complex was 5%. The Susceptible result in the test on Burkholderia A396 (disk 5 μg) is listed as “++”.
In the case of `CC[C@H]1OC(=O)[C@H](C)[C@@H](O[C@H]2C[C@@](C)(OC)[C@@H](O)[C@H](C)O2)[C@H](C)[C@@H](O[C@@H]2O[C@H](C)C[C@H](N(C)C)[C@H]2O)[C@](C)(O)C[C@@H](C)C(=O)[C@H](C)[C@@H](O)[C@]1(C)O` [Erythromycin], in the test with Burkholderia A396 (disk 15 μg), the Susceptible result is recorded as “−”.
As for `C[C@@H](O)[C@H]1C(=O)N2C(C(=O)O)=C(SCCN=CN)C[C@H]12` [Imipenem], in the test on Burkholderia A396 (disk 10 μg), the Susceptible result is given as “+++”.
As to `NC[C@H]1O[C@H](O[C@H]2[C@H](O)[C@@H](O[C@H]3O[C@H](CO)[C@@H](O)[C@H](N)[C@H]3O)[C@H](N)C[C@@H]2N)[C@H](O)[C@@H](O)[C@@H]1O` [Kanamycin], in the test with Burkholderia A396 (disk 30 μg), the Susceptible result is on record as “+++”.
The same measure, in the same setting: under `CN(C)[C@@H]1C(O)=C(C(N)=O)C(=O)[C@@]2(O)C(O)=C3C(=O)c4c(O)cccc4[C@@](C)(O)[C@H]3[C@H](O)[C@@H]12` [Oxytetracycline] stands “−”.
Consider `CCN1CCN(C(=O)N[C@@H](C(=O)N[C@@H]2C(=O)N3[C@@H]2SC(C)(C)[C@@H]3C(=O)O)c2ccccc2)C(=O)C1=O` [Piperacillin], for which, in the test with Burkholderia A396 (disk 100 μg), the Susceptible result is “+++”.
In the case of `[H]/N=C(/N)N[C@H]1[C@H](O)[C@@H](O)[C@H](O[C@@H]2O[C@@H](C)[C@](O)(C=O)[C@H]2O[C@@H]2O[C@@H](CO)[C@H](O)[C@@H](O)[C@@H]2NC)[C@@H](N/C(N)=N\[H])[C@@H]1O` [Streptomycin], in the test with Burkholderia A396 (disk 10 μg), the Susceptible result is recorded as “−”.
A word on the mortality: it is the percentage killed. As for `CCC(=O)OC(C)/C=C\C(=O)NC1CC(C)C(C/C=C(C)/C=C/C2OC(C)(O)C(O)C(O)(CO)C2O)OC1C` (centres unmarked) [Templamide A], the “% Control” value was −67.61% in test [1] (setting [3]), −21.16% in test [1] (setting [5]) and −151.6% in test [1] (setting [7]). The Visual result in test [1] (setting [4]), in test [1] (setting [6]) and in test [1] (setting [8]) was “Not Active” each time. Besides, the mortality result in the test with Lygus hesperus was “inactive”.
`CCC(=O)OC(C)/C=C\C(=O)NC1CC(C)C(C/C=C(C)/C=C/C2OC(C)(O)C(O)C3(CO3)C2O)OC1C` (centres unmarked) [Templamide B]: the entries for the “% Control” value in test [1] (setting [3]), in test [1] (setting [5]) and in test [1] (setting [7]) were 95.05%, 99.34% and 98.3%, respectively. In addition, the Visual result in test [1] (setting [4]), in test [1] (setting [6]) and in test [1] (setting [8]) was “Active” throughout. The same compound gave a mortality at 250 µg/mL in the test with Lygus hesperus (Lygus hesperus) of 69.2%.
With `COC(=O)c1nc(CC(C)C)oc1-c1c[nH]c2ccccc12` [Templazole A, templazole A], the “% Control” value in test [1] (setting [3]) is 99.18% and 98.69%; in test [1] (setting [5]), 98.73% and 98.31%; in test [1] (setting [7]) it was 98.15% and 95.71%. Besides, the Visual result in test [1] (setting [4]), in test [1] (setting [6]) and in test [1] (setting [8]) was “Active” each time.
As to `CN(C)[C@@H]1C(O)=C(C(N)=O)C(=O)[C@@]2(O)C(O)=C3C(=O)c4c(O)cccc4[C@@](C)(O)[C@H]3C[C@@H]12` [Tetracycline], the Susceptible entry with Burkholderia A396 (disk 30 μg) is listed as “−”.
For `C[C@@H]1[C@@H](c2ccc(Cl)cc2)SC(=O)N1C(=O)NC1CCCCC1` [hexythiazox], the “No. egg TSM/leaflet” value is listed as 2 in test [2] (Day 1 (pre-treatment sample)); 8.5 in test [2] (Day 9); 15 in test [2] (Day 16); 17 in test [2] (Day 22); 22 in test [2] (Day 30); 71.5 in test [2] (Day 37). Further, the “No. egg TSM/leaflet” value in test [2] (Day 44) is 128.5; in test [2] (Day 52), 281.5; in test [2] (Day 58), 393.5.
Take Gentamicin: the Susceptible result in the test on Burkholderia A396 (disk 10 μg) is given as “−”.
Still for that read-out and setting: under Penicillin stands “−”.
For templazole B, the “% Control” value was −102.1% in test [1] (setting [3]), 52.95% in test [1] (setting [5]) and −30.79% in test [1] (setting [7]). The Visual entry in test [1] (setting [4]), in test [1] (setting [6]) and in test [1] (setting [8]) was “Not Active” each time.
